What was measured:
Format in all cases: cell-based
[1] = system: cell line PC3 (human androgen-independent prostate carcinoma); assay: Transfection of PC3 cells with plasmid pEGFP-N1; GFP expression by cytofluorimetry 48 h later, and survival; settings: for capable of giving a significant percentage of living cells expressing the GFP protein (in words) / toxicity / cell mortality with respect to 16, 22 and 17 (in words): 5 μg pEGFP-N1
Protocol: The plasmid vector PEGFP-N1 (BD Biosciences), containing the gene encoding green fluorescent protein (GFP) has been used in the transfection tests. Due to its properties, GFP is a useful tool for monitoring “passive” gene expression: indeed, fluorescent detection in this particular system is performed by means of cytofluorimetry or by microscopy.
Transfection tests have been performed on the cell line PC3 (human androgen-independent prostate carcinoma) with the plasmid PEGFP-N1 used in quantities equal to 2.5 and 5 μg. The general experimental outline envisaged 4 hours of transfection in reduced-serum culture medium, and in the absence of antibiotics. Upon completion of transfection, the culture medium has been replaced with normal growth medium and the evaluation of GFP expression has been performed 48 hours later by means of cytofluorimetry.

[2] = system: normal human thyrocytes (Line 636); assay: Transfection of normal human thyrocytes (Line 636) with 16/pEGFP-N1 complexes; GFP expression and survival; settings: 16/pEGFP-N1 (5 μg)
[3] = system: transformed human kidney cells (Line 293); assay: Transfection of transformed human kidney cells (Line 293) with 16/pEGFP-N1 complexes; GFP expression and survival; settings: 16/pEGFP-N1 (5 μg)
[4] = 2.5 μg pEGFP-N1, 16 and 17 at CR = 6.0, commercial agents per manufacturer, at least 3 independent experiments (Table 3)
[5] = 2.5 μg pEGFP-N1, 16 and 17 at CR = 6.0, commercial agents per manufacturer, mean percentage with respect to control, at least 3 independent experiments (Table 3)
[6] = 2.5 μg pEGFP-N1, charge ratio CR = 1.5
[7] = 2.5 μg pEGFP-N1, charge ratio CR = 3.0
[8] = 2.5 μg pEGFP-N1, charge ratio CR = 6.0 (Table 1)
[9] = 5 μg pEGFP-N1, 16 and 17 at CR = 6.0, commercial agents per manufacturer, at least 3 independent experiments (Table 3)
[10] = 5 μg pEGFP-N1, 16 and 17 at CR = 6.0, commercial agents per manufacturer, mean percentage with respect to control, at least 3 independent experiments (Table 3)
[11] = 5 μg pEGFP-N1, charge ratio CR = 1.5
[12] = 5 μg pEGFP-N1, charge ratio CR = 3.0
[13] = 5 μg pEGFP-N1, charge ratio CR = 6.0 (Table 1)
[14] = CR = 6, percentage with respect to control, preliminary data
[15] = 5 μg pEGFP-N1, constant charge ratio CR = 6 (Table 2)
[16] = 5 μg pEGFP-N1, constant charge ratio CR = 6, percentage with respect to control (Table 2)

Compound: CCCCCCCCCCCCCCNc1nc(NCCS)nc(NCCCN)n1 [Compound 16]
- GFP+ living cells [1, 4]: 20.5%
- Total GFP+ cells [1, 4]: 25.4%
- Survival [1, 5]: 81.0%
- GFP+ living cells [1, 6]: 1.18%
- Total GFP+ cells [1, 6]: 4.75%
- Survival ([1]; 2.5 μg pEGFP-N1, charge ratio CR = 1.5, percentage with respect to control): 71.4%
- GFP+ living cells [1, 7]: 4.05%
- Total GFP+ cells [1, 7]: 7.81%
- Survival ([1]; 2.5 μg pEGFP-N1, charge ratio CR = 3.0, percentage with respect to control): 79.8%
- GFP+ living cells [1, 8]: 32.40%
- Total GFP+ cells [1, 8]: 46.13%
- Survival ([1]; 2.5 μg pEGFP-N1, charge ratio CR = 6.0, percentage with respect to control (Table 1)): 86.3%
- GFP+ living cells [1, 9]: 41.14%
- Total GFP+ cells [1, 9]: 57%
- Survival [1, 10]: 58.0%
- GFP+ living cells [1, 11]: 1.54%
- Total GFP+ cells [1, 11]: 1.85%
- Survival ([1]; 5 μg pEGFP-N1, charge ratio CR = 1.5, percentage with respect to control): 100%
- GFP+ living cells [1, 12]: 10.6%
- Total GFP+ cells [1, 12]: 12.45%
- Survival ([1]; 5 μg pEGFP-N1, charge ratio CR = 3.0, percentage with respect to control): 96.0%
- GFP+ living cells [1, 13]: 64.6%
- Total GFP+ cells [1, 13]: 70.70%
- Survival ([1]; 5 μg pEGFP-N1, charge ratio CR = 6.0, percentage with respect to control (Table 1)): 64.4%
- cellular toxicity (in words) ([1]; 2.5 and 5 μg pEGFP-N1): absence of any significant cellular toxicity
- capacity to induce the transfection of PC3 cells (in words) ([1]; 2.5 and 5 μg pEGFP-N1, GFP expression 48 hours following transfection): significant percentage of GFP-positive cells
- transfection efficiency compared with Lipofectamine 2000 (in words) ([1]; equal amounts of plasmid DNA): comparable to that of Lipofectamine 2000 only in the presence of higher quantities of plasmid DNA
- Survival [2, 14]: 75.3%
- GFP+ living cells ([2]; CR = 6, preliminary data): 34.3%
- Total GFP+ cells ([2]; CR = 6, preliminary data): 53.8%
- Survival [3, 14]: 86.8%
- GFP+ living cells ([3]; CR = 6, preliminary data): 58.3%
- Total GFP+ cells ([3]; CR = 6, preliminary data): 76.2%

Compound: CCCCCCCCCCCCCCNc1nc(NCCS)nc(N2CCNCC2)n1 [Compound 18, 2-[4-(2-N-piperazinyl)-6-tetradecylamino-[1,3,5]triazin-2-ylamino]-ethanethiol]
- capable of giving a significant percentage of living cells expressing the GFP protein (in words) [1]: none
- toxicity / cell mortality with respect to 16, 22 and 17 (in words) [1]: significantly greater cell mortality
- GFP+ living cells [1, 15]: 8.4%
- Total GFP+ cells [1, 15]: 56.2%
- Survival [1, 16]: 6.3%

Compound: NCCCNc1nc(NCCS)nc(NCc2ccccc2)n1 [Compound 20]
- capable of giving a significant percentage of living cells expressing the GFP protein (in words) [1]: none
- toxicity / cell mortality with respect to 16, 22 and 17 (in words) [1]: did not show excessive levels of toxicity
- GFP+ living cells [1, 15]: 0.01%
- Total GFP+ cells [1, 15]: 0.9%
- Survival [1, 16]: 74.0%

Compound: CCCCCCNc1nc(NCCS)nc(NCCCN)n1 [Compound 21]
- capable of giving a significant percentage of living cells expressing the GFP protein (in words) [1]: none
- toxicity / cell mortality with respect to 16, 22 and 17 (in words) [1]: significantly greater cell mortality
- GFP+ living cells [1, 15]: 0.3%
- Total GFP+ cells [1, 15]: 2.1%
- Survival [1, 16]: 12.8%

Compound: CCCCCCCC/C=C\CCCCCCCC(=O)OCC(C[N+](C)(C)C)OC(=O)CCCCCCC/C=C\CCCCCCCC.[Cl-] (centres unmarked) [DOTAP, reference compound]
- GFP+ living cells [1, 4]: 12.0%
- Total GFP+ cells [1, 4]: 15.8%
- Survival [1, 5]: 78.6%
- GFP+ living cells [1, 9]: 21.3%
- Total GFP+ cells [1, 9]: 23.5%
- Survival [1, 10]: 65.8%
- percentage of transfection with respect to compounds 16 and 17 (in words) ([1]; both quantities of plasmid DNA): lower percentage of transfection
- toxicity with respect to compounds 16 and 17 (in words) ([1]; both quantities of plasmid DNA): less toxic

From patent publication US7999101B2, “Cationic lipids for the transfection of nucleic acids” (Politecnico Di Milano, priority 2005, dated 2011)
